The conditions of data set [1]: cited from earlier work.
Data set [2] concerns aryl hydrocarbon receptor (AHR). To be noted: 2,3,7,8-TCDD set to 1; cited from earlier work.
Data set [3] relates to dioxin-response elements (DREs)-luciferase in Hepa1c1c7-MP cells. Briefly: luciferase light intensity bioassay in transfected cell line Hepa1c1c7-MP. Type of data set: cell-based, mouse. As to the method:
(§1) The transfected cells (4×10^5 cells/well) were placed in a 24 well-culture plate. To each well was added 1 mL of culture medium (DMEM+10% FBS). Thereafter, the culture plate was placed in a constant-temperature incubator set at 37° C. and 5% CO2 for two hours to permit cell adhesion.
(§2) The Dioxin (2,3,7,8-TCDD) stock solution with a concentration of 10 μg/mL was subjected to 10-fold serial dilution. 3.22 μl of each diluted solution was taken and added to each well of the culture plate, such that the final concentrations of dioxin in the experimental groups are 10 nM, 1 nM, 100 pM, […], 10 pM, 1 pM and 0.1 pM, respectively. Each experimental group was prepared in quadruplicate. The normal control group was not subjected to any treatment, whereas the solvent control group was treated using 3.22 μl of DMSO. […]
(§3) 100 μl of the lysate obtained in each group was taken and added to each well of a non-transparent 96-well plate, followed by addition of 50 μl of luciferin (which is included in the Luciferase Assay System, (Cat#1500), Promega Cooperation). Finally, the plate was sent to a Beckman coulter DU640B spectrophotometer (set at PMT:1100; read length:0.5; and Gain:1˜100) for automatic detection of the light intensity within 20 seconds. The experimental results thus obtained were analyzed and plotted using statistical analysis, so as to determine whether the results have statistic significance. […]

The test system of data set [4] is dioxin-response elements (DREs)-luciferase in Hepa1c1c7-M4P2 cells. Briefly: luciferase light intensity bioassay in transfected cell line Hepa1c1c7-M4P2. Type of data set: cell-based, mouse. As to the method:
as §1, §2, §3

Where [5] appears, read: 100 pM 2,3,7,8-TCDD, 5, 10, 15 and 20 hours tested.

With “2,3,7,8-tetrachloro-dibenzo-p-dioxin [2,3,7,8-TCDD]”, in data set [1], the water solubility was 0.0193 ng/mL. As for `Clc1cc2c(c(Cl)c1Cl)Oc1c(Cl)c(Cl)c(Cl)c(Cl)c1O2` [1,2,3,4,6,7,8-HpCDD], the I-TEF in data set [2] was 0.01. For `Clc1cc2c(oc3c(Cl)c(Cl)c(Cl)c(Cl)c32)c(Cl)c1Cl` [1,2,3,4,6,7,8-HpCDF], the I-TEF in data set [2] is reported as 0.01. As for `Clc1cc2oc3c(Cl)c(Cl)c(Cl)c(Cl)c3c2c(Cl)c1Cl` [1,2,3,4,7,8,9-HpCDF], in data set [2], the I-TEF is listed as 0.01. On to `Clc1cc2c(cc1Cl)Oc1c(Cl)c(Cl)c(Cl)c(Cl)c1O2` [1,2,3,4,7,8-HxCDD], for which the I-TEF in data set [2] is reported as 0.1. Regarding `Clc1cc2oc3c(Cl)c(Cl)c(Cl)c(Cl)c3c2cc1Cl` [1,2,3,4,7,8-HxCDF], in data set [2], the I-TEF is 0.1. Take `Clc1cc2c(c(Cl)c1Cl)Oc1cc(Cl)c(Cl)c(Cl)c1O2` [1,2,3,6,7,8-HxCDD]: in data set [2], the I-TEF is given as 0.1.

Turning to `Clc1cc2c(oc3cc(Cl)c(Cl)c(Cl)c32)c(Cl)c1Cl` [1,2,3,6,7,8-HxCDF], the I-TEF in data set [2] is recorded as 0.1. For the compound `Clc1cc2c(c(Cl)c1Cl)Oc1c(cc(Cl)c(Cl)c1Cl)O2` [1,2,3,7,8,9-HxCDD], the I-TEF in data set [2] was 0.1. With `Clc1cc2oc3cc(Cl)c(Cl)c(Cl)c3c2c(Cl)c1Cl` [1,2,3,7,8,9-HxCDF], the I-TEF in data set [2] is 0.1. Turning to `Clc1cc2c(cc1Cl)Oc1c(cc(Cl)c(Cl)c1Cl)O2` [1,2,3,7,8-PeCDD], in data set [2], the I-TEF was 0.5.

In the case of `Clc1cc2oc3cc(Cl)c(Cl)c(Cl)c3c2cc1Cl` [1,2,3,7,8-PeCDF], the I-TEF in data set [2] is 0.05. As to `Clc1cc2c(oc3c(Cl)c(Cl)c(Cl)cc32)c(Cl)c1Cl` [2,3,4,6,7,8-HxCDF], the I-TEF in data set [2] is 0.1.

`Clc1cc2c(cc1Cl)Oc1cc(Cl)c(Cl)cc1O2` [2,3,7,8-TCDD, 2,3,7,8-tetrachloro-dibenzo-p-dioxin]: in data set [2], the I-TEF was 1. For the same compound, the “dioxin treatment time giving the most stable and the optimal light intensity result” value in data set [3] (setting [5]) turned out to be 20 h; in data set [4] (setting [5]), 15 h. Besides, the “lowest limit of dioxin detection (significant light intensity changes vs controls)” value in data set [3] (15 hours treatment) stood at 5 pM. Further, the “lowest limit of dioxin detection (obvious light intensity changes vs controls)” value in data set [4] (15 hours treatment) worked out at 5 pM. As to `Clc1cc2oc3cc(Cl)c(Cl)cc3c2cc1Cl` [2,3,7,8-TCDF], the I-TEF in data set [2] is given as 0.1. Regarding `Clc1c(Cl)c(Cl)c2c(c1Cl)Oc1c(Cl)c(Cl)c(Cl)c(Cl)c1O2` [OCDD], the I-TEF in data set [2] is 0.001.

`Clc1c(Cl)c(Cl)c2c(oc3c(Cl)c(Cl)c(Cl)c(Cl)c32)c1Cl` [OCDF]: the I-TEF in data set [2] is on record as 0.001.

The values above are taken from patent US20050277142A1, “Recombinant cell line for the detection of dioxin-like compounds based on the expression of luciferase gene” (priority 2004, published 2005).
